Reference: patent US20220153746A1, “NITROGEN OXIDE-DONATING PDE-5 AND/OR PDE-6 INHIBITOR COMPOUNDS, AND USES THEREOF” (ILDONG PHARMACEUTICAL CO., LTD., priority 2020, published 2022)
Values joined by “and” are separate entries in the source; they are usually repeats but may differ in a detail not shown here. Equal entries are not always repeated.

Experiment: TD Phase (Groups 1 and 3): plasma and ocular tissue concentrations and pharmacokinetics of Compound 18 and its metabolite Compound 4 after once daily ocular instillation of Compound 18 nanosuspension for 7 days
Assay type: in vivo, New Zealand white rabbits
Settings: for Compound 18 Lens Homogenate Conc.: homogenate dilution factor 5; for Compound 18 Iris/Ciliary Body Homogenate Conc. / Compound 18 Optic Nerve Homogenate Conc. / Compound 18 Retina Homogenate Conc. / Compound 18 Trahecular Meshwork Homogenate Conc.: homogenate dilution factor 20; for Cornea homogenate concentration: homogenate dilution factor 15
Source text: This example illustrates the procedures and results for the levels of Compound 18 and its metabolite Compound 4 in plasma and ocular tissues of normotensive rabbits following ocular instillation of Compound 18 once daily for 7 consecutive days.
Twenty five (25) male New Zealand white rabbits were divided into 5 groups of varying amounts of animals per group.
The Test article, Compound 18 was formulated as a 2% nanosuspension in DI water containing 0.2% PS80 (polyoxyethylenesorbitan, monooleate (Tween 80)) and 0.4% HPMC (hydroxypropylmethylcellulose) at pH 6.77. Referred to herein as “Compound 18 nanosuspension.”
The study consisted of three groups (Groups 1-3) of 19 male rabbits (NZW) that underwent once daily morning ocular installation (1 eyedrop) for 7 consecutive days (Day 0-6). Groups 4-5 each consisted of 3 male rabbits (NZW) that were not dosed.
Blood samples (1 mL) were collected from the jugular vein at the intervals set out below for each group. The samples were then inverted several times following collection and held on wet ice until centrifuged. Samples were centrifuged within 60 minutes of collection under refrigeration (set at 5° C. for 10 minutes at 2000 g.
Group 1 (Pilot Study, terminal blood collection): blood was collected from 3 animals at 1 hour post day 7 dose of Compound 18 nanosuspension.
Group 3 (TD Phase, terminal blood collection): blood was collected from 3 animals at 0.5 hour, 3 animals at 2 hours, 3 animals at 4 hours, and 3 animals at 8 hours post day 7 dose of Compound 18 nanosuspension.
(§1) Group 1 (Pilot Study): 3 animals were terminated at 1 hour post Day 7 dose of Compound 18 nanosuspension. Following blood collection and termination, ocular tissues (aqueous humor, vitreous humor, cornea, iris/ciliary body, lens, optic nerve, retina, sclera/choroid, and trabecular meshwork) were collected from each animal and the tissue weights were recorded. Note: sclera and choroid were collected together. Iris and ciliary body were collected together.
as §1, with “3 (TD Phase):” for “1 (Pilot Study):”, “0.5 hour, 3 animals at 2 hours, 3 animals at 4 hours, and 3 animals at 8 hours” for “1 hour”
Plasma and tissue samples from treated animals (Groups 1-3) were analyzed for Compound 18 and its metabolite Compound 4 concentrations by LC-MS/MS.
Pharmacokinetic analysis was conducted using WinNonlin Version 6.2.1 (Pharsight, Mountain View, Calif.), operating as a validated software system. Noncompartmental analysis was conducted using the extravascular administration model for ocular instillation dosing.
The peak plasma and ocular tissue concentration, time to achieve peak plasma and ocular tissue concentration, half-life, and area under the plasma and ocular tissue concentration-time curve (Cmax, Tmax, T1/2, and AUC) were calculated from the TD phase combined with the pilot study mean animal plasma and ocular tissue concentrations for each sampling time/dose group for Compound 18 and its metabolite Compound 4.
BA Assay: Quantitation Range 0.05 to 100 ng/mL for Compound 18, 0.15 to 100 ng/mL for Compound 4.
3. Pipet 50 μL of each type of pre-spiked ocular tissue samples (AH/VH) for QC samples, 50 μL of incurred aqueous humor, and vitreous humor sample (if applicable) into a 96 well plate.
Ocular Tissues Homogenate Preparation: Incurred rabbit ocular tissues were weighed in Genogrinder tubes (plastic tubes with small beads) at the time of removal from the animal and stored frozen (<−70° C.) until analysis. The rabbit incurred ocular tissues were thawed on wet ice. […]

[1] = TD Phase, Group 1, 1 h, individual animals
[2] = TD Phase, Group 1, 1 h, individual animals, BQL set to 0
[3] = TD Phase, Group 3, 0.5 h, individual animals
[4] = TD Phase, Group 3, 0.5 h, individual animals, BQL set to 0
[5] = TD Phase, Group 3, 2 h, individual animals
[6] = TD Phase, Group 3, 2 h, individual animals, BQL set to 0

CCCc1nn(C)c2c(=O)[nH]c(-c3cc(S(=O)(=O)N4CC(CCCO[N+](=O)[O-])C4)ccc3OCC)nc12 [Compound 18, 3-(1-((4-ethoxy-3-(1-methyl-7-oxo-3-propyl-6,7-dihydro-1H-pyrazolo[4,3-d]pyrimidin-5-yl)phenyl)sulfonyl)azetidin-3-yl)propyl nitrate]
AUC0-8 (Iris/Ciliary Body, Day 7, Compound 18 0.8 mg/kg ocular instillation once daily, Groups 1 and 3): 150 ng·h/g | Compound 18 Vitreous Humor Conc. (TD Phase, Group 1, 1 h, Mean, BQL set to 0): BQL (BQL = Below lower limit of quantitation (0.0500 ng/mL for Compound 18) | Compound 18 Aqueous Humor Conc. [1]: BQL (BQL = Below lower limit of quantitation (0.0500 ng/mL for Compound 18) | Compound 18 Plasma Conc. [1]: BQL^a (BQL = Below lower limit of quantitation (0.0500 ng/mL for Compound 18) and 0.0581 ng/mL | Compound 18 Vitreous Humor Conc. [1]: BQL (BQL = Below lower limit of quantitation (0.0500 ng/mL for Compound 18) | Final Compound 18 Optic Nerve Conc. [1]: 192 ng/g and 266 ng/g | Final Compound 18 Iris/Ciliary Body Conc. [2]: 0 ng/g and 18.7 ng/g and 302 ng/g | Final Compound 18 Lens Conc. [2]: 0 ng/g | Final Compound 18 Retina Conc. [2]: 6.24 ng/g and 20.2 ng/g and 27.8 ng/g | Compound 18 Lens Homogenate Conc. [1]: BQL (BQL = Below lower limit of quantitation (0.0500 ng/mL for Compound 18) | Compound 18 Iris/Ciliary Body Homogenate Conc. [1]: BQL (BQL = Below lower limit of quantitation (0.0500 ng/mL for Compound 18) and 0.934 ng/mL and 15.1 ng/mL | Compound 18 Optic Nerve Homogenate Conc. [1]: 9.59 ng/mL and 13.3 ng/mL | Compound 18 Retina Homogenate Conc. [1]: 0.312 ng/mL and 1.01 ng/mL and 1.39 ng/mL | Compound 18 Trahecular Meshwork Homogenate Conc. [1]: BQL (BQL = Below lower limit of quantitation (0.0500 ng/mL for Compound 18) | Compound 18 Aqueous Humor Conc. (TD Phase, Group 3, 0.5 h, Mean, BQL set to 0): BQL (BQL = Below lower limit of quantitation (0.0500 ng/mL for Compound 18) | Compound 18 Aqueous Humor Conc. [3]: BQL^a (BQL = Below lower limit of quantitation (0.0500 ng/mL for Compound 18) | Compound 18 Plasma Conc. [3]: 0.627 ng/mL and 0.0972 ng/mL and 0.0599 ng/mL | Compound 18 Vitreous Humor Conc. [3]: BQL^a (BQL = Below lower limit of quantitation (0.0500 ng/mL for Compound 18) | Final Compound 18 Optic Nerve Conc. [3]: 116 ng/g and 30.4 ng/g and 183 ng/g | Final Compound 18 Sclera/Choroid Conc. [3]: 88.8 ng/g and 47.2 ng/g and 186 ng/g | Final Compound 18 Iris/Ciliary Body Conc. [4]: 2.24 ng/g and 0 ng/g and 268 ng/g | Final Compound 18 Lens Conc. [4]: 0 ng/g (2×) and 6.35 ng/g | Final Compound 18 Retina Conc. [4]: 20.2 ng/g and 29.8 ng/g | Compound 18 Lens Homogenate Conc. [3]: BQL^1 (BQL = Below lower limit of quantitation (0.0500 ng/mL for Compound 18) | Compound 18 Sclera/Choroid Homogenate Conc. (TD Phase, Group 3, 0.5 h, individual animals, homogenate dilution factor 8): 11.1 ng/mL and 5.90 ng/mL and 23.3 ng/mL | Cornea homogenate concentration [3]: BQL^a (BQL = Below lower limit of quantitation (0.0500 ng/mL for Compound 18) | Compound 18 Iris/Ciliary Body Homogenate Conc. [3]: 0.112 ng/mL and BQL^a (BQL = Below lower limit of quantitation (0.0500 ng/mL for Compound 18) and 13.4 ng/mL | Compound 18 Optic Nerve Homogenate Conc. [3]: 5.79 ng/mL and 1.52 ng/mL and 9.17 ng/mL | Compound 18 Retina Homogenate Conc. [3]: 1.01 ng/mL and 1.49 ng/mL | Compound 18 Trahecular Meshwork Homogenate Conc. [3]: BQL^a (BQL = Below lower limit of quantitation (0.0500 ng/mL for Compound 18) | Compound 18 Aqueous Humor Conc. (TD Phase, Group 3, 2 h, Mean, BQL set to 0): BQL (BQL = Below lower limit of quantitation (0.0500 ng/mL for Compound 18) | Compound 18 Aqueous Humor Conc. [5]: BQL (BQL = Below lower limit of quantitation (0.0500 ng/mL for Compound 18) | Compound 18 Plasma Conc. [5]: BQL (BQL = Below lower limit of quantitation (0.0500 ng/mL for Compound 18) | Compound 18 Vitreous Humor Conc. [5]: BQL (BQL = Below lower limit of quantitation (0.0500 ng/mL for Compound 18) | Final Compound 18 Optic Nerve Conc. [5]: 24.4 ng/g and 1030 ng/g and 79.0 ng/g | Final Compound 18 Iris/Ciliary Body Conc. [6]: 1.27 ng/g and 15.4 ng/g and 0 ng/g | Final Compound 18 Lens Conc. [6]: 0 ng/g | Final Compound 18 Retina Conc. [6]: 31.5 ng/g and 69.4 ng/g and 3.40 ng/g | Compound 18 Lens Homogenate Conc. [5]: BQL (BQL = Below lower limit of quantitation (0.0500 ng/mL for Compound 18) | Cornea homogenate concentration [5]: BQL (BQL = Below lower limit of quantitation (0.0500 ng/mL for Compound 18) | Compound 18 Iris/Ciliary Body Homogenate Conc. [5]: 0.0637 ng/mL and 0.772 ng/mL and BQL (BQL = Below lower limit of quantitation (0.0500 ng/mL for Compound 18) | Compound 18 Optic Nerve Homogenate Conc. [5]: 1.22 ng/mL and 51.5 ng/mL and 3.95 ng/mL
